In patent publication US20250268873A1, “COMBINATION OF DUAL ATM AND DNA-PK INHIBITORS AND IMMUNOTHERAPEUTIC AGENTS FOR USE IN CANCER THERAPY” (XRAD THERAPEUTICS, INC., priority 2021, published 2025):

Tests used:
[1] = test system: FADU tumors; experiment: In vivo tumor growth delay study, FADU subcutaneous human xenograft mouse model
Method: Female NCr nu/nu mice (Crl:NU(NCr)-Foxn1nu, Strain 490) were obtained from Charles River at 5-6 weeks of age.
FADU or MDA-MB-231 cells were harvested during log phase growth for in vivo implantation. The resuspended cells were washed three times in phosphate buffered saline (PBS) before preparing the working dilution in PBS. FADU cells were diluted to 1×10^7 cells/mL and MDA-MB-231 cells were diluted to 5×10^7 cells/mL. Each mouse was injected subcutaneously in the right flank with 100 μL of the cellular suspension. Tumor growth was monitored until the tumors reached a target volume of at least 100 mm^3, at which point mice were randomly stratified into four treatment groups.
Following implantation of the tumor cell lines, mice were monitored once weekly for tumor development. Upon detection, tumors were measured in two dimensions using digital calipers. Tumors were treated after reaching at least 100 mm^3 and were measured two to three times weekly following enrollment in one of the treatment groups. The study endpoint was defined as tumor quintupling from the volume at time of treatment.
The vehicle used in this study was 0.5% (Hydroxypropyl)methyl cellulose (HPMC) and 0.2% Tween80 dissolved in deionized water. The pH of the vehicle was adjusted to 7.0-8.0 and the vehicle was stored at 4° C. On each day of in vivo treatment an appropriate mass of test compound was added to the vehicle at room temperature. The mixture was vortexed as necessary to generate a final concentration of 1.6 mg/mL.
In vivo tumor growth delay study was performed as follows. Following implantation of the tumor cell lines, mice were monitored once weekly for tumor development. Upon development of a tumor measuring at least 100 mm^3, tumor-bearing mice were stratified to one of 4 groups, utilizing 5 mice per group. Tumor volumes were between 100 and 500 mm^3. Vehicle or compound 569 (10 mg/kg) were administered by oral gavage once daily for three consecutive days (qd×3), alone or in combination with focal radiation. The delivered volume of vehicle or compound 569 was adjusted based on body weight of the individual animals. […]
Prism (GraphPad) was used for graphical presentations. […] In order to adjust for the differing tumor sizes at the start of treatment, the relative tumor volume was calculated by dividing the tumor volume at each time point by the volume at baseline. […] When an animal exited the study due to tumor quintupling, the final tumor volume recorded for the animal was included with the data used to calculate the median volume at subsequent time points. […] Differences in quintupling-free survival between the four treatment groups were evaluated with a log-rank test. […]

[2] = test system: A549 cells; experiment: Clonogenic Survival Assay in A549 cells; type: cell-based, human; settings: for Fold 2 Gy / Fold 4 Gy: vs DMSO; for % survival @ 0 Gy w/out IR: no IR
Method: Human cancer cell lines, including MCF-7 human breast carcinoma cell line and A549 human lung carcinoma cell line, and HCT116 p53 wild-type and HCT116 p53−/− cell lines were obtained from ATCC. MCF7 and HCT116 cells were cultured in Dulbecco's modified Eagle's medium (DMEM (Gibco #11995-065). MDA-MB-231 human triple negative breast cancer cell line and FADU, human head and neck squamous cell carcinoma line, were obtained from Charles River Laboratories (Morrisville, NC). MDA-MB-231 and A549 cells were cultured in RPMI 1640 medium (Gibco, 11875-093). FADU cells were cultured in Minimum Essential Medium α (MEM α) (Gibco, 12571-063) supplemented with 1 mM Sodium Pyruvate (Gibco, 11360-070), 1×MEM Non-Essential Amino Acids (Gibco, 11140-050). All cell lines were supplemented with 10% fetal bovine serum (FBS) (Corning, 35-010-CV) and 1× Antibiotic-Antimycotic (Gibco #15240-062) and were grown at 37° C. in 5% CO2. All cell lines were authenticated by short tandem repeat profiling and tested negative for mycoplasma.
This assay was performed with Compound 569 as an exemplary Formula (I) compound. Cells were plated in 6-well plates at different densities: 250 cells for no IR control, 5000 cells for 2 Gy of IR and 10000 cells for 4 Gy of IR and cultured overnight. The next day, MCF7 cells were preincubated with compound 569 at 100, 250, 500, or 1000 nM or DMSO for 30 min before being exposed to increasing doses of IR (0, 2, or 4 Gy). The A549 cells were incubated with Compound 569 at 500 or 1000 nM or with DMSO for 30 min before being exposed to increasing doses of IR (0, 2, or 4 Gy). After IR, cells were continuously incubated with DMSO or compound 569 for 5 h before the culture medium was removed and cells were washed with PBS. Cells were cultured in complete medium in the absence of inhibitor for 9 days. Then cells were stained (PBS, […], 0.1% crystal violet) rinsed with water and dried.

Structure (SMILES): CC(C)NCCOc1ncc(-c2cc3c4c(cnc3cc2F)N(C)C(=O)C42CCC2)cc1NS(C)(=O)=O [Compound 569, N-(5-(7′-Fluoro-3′-methyl-2′-oxo-2′,3′-dihydrospiro[cyclobutane-1,1′-pyrrolo[2,3-c]quinolin]-8′-yl)-2-(2-(isopropylamino)ethoxy)pyridin-3-yl)methanesulfonamide]
- median time to endpoint (tumor quintupling) ([1]; Group 2: Compound 569 10 mg/kg po qd×3 alone): 14 days
- tumor growth curves and quintupling-free survival ([1]; Group 2: Compound 569 10 mg/kg qd×3 alone vs vehicle (Group 1)): nearly identical to those for Group 1
- median time to endpoint (tumor quintupling) ([1]; Group 4: compound 569 10 mg/kg 45 min prior to 3 Gy focal radiation, qd×3): 42 days
- overall survival (quintupling-free) ([1]; Group 4: compound 569 + 3 Gy qd×3, P<0.01, logrank): significantly improved compared to Group 1, Group 2, and Group 3
- cellular toxicity in the absence of IR ([2]; 5-h exposure): without evidence of cellular toxicity
- radiosensitization ([2]; 5-h exposure, 500 and 1000 nM, 0, 2, 4 Gy): significant degree of radiosensitization
- Clonogenic survival ratio 0 Gy ([2]; 569 500 nM): 1.000
- Clonogenic survival ratio 2 Gy ([2]; 569 500 nM): 0.0780
- Fold 2 Gy ([2]; 569 500 nM): 9.3
- Clonogenic survival ratio 4 Gy ([2]; 569 500 nM): 0.0044
- Fold 4 Gy ([2]; 569 500 nM): 64
- % survival @ 0 Gy w/out IR ([2]; 569 500 nM): 110%
- Clonogenic survival ratio 0 Gy ([2]; 569 1000 nM): 1.000
- Clonogenic survival ratio 2 Gy ([2]; 569 1000 nM): 0.0520
- Fold 2 Gy ([2]; 569 1000 nM): 14
- Clonogenic survival ratio 4 Gy ([2]; 569 1000 nM): 0.0015
- Fold 4 Gy ([2]; 569 1000 nM): 188
- % survival @ 0 Gy w/out IR ([2]; 569 1000 nM): 103%
